Measurements as given in PubChem BioAssay (NCI).
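1) Cells in 96-well plates. 2) Compound, 48 h, 5 concentrations. 3) Linear interpolation between surrounding doses. 4) Unreached endpoint = highest concentration. TGI is the concentration that stops growth completely.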

Assays:
Experiment in all cases: NCI tumour cell line growth inhibition, 48 h
[1] = test system: KM12 colon
[2] = test system: SK-MEL-28 melanoma
[3] = test system: RXF 393 renal
[4] = test system: SN12C renal
[5] = test system: CAKI-1 renal
[6] = test system: MOLT-4 leukemia
[7] = test system: OVCAR-4 ovarian
[8] = test system: NCI/ADR-RES ovarian
[9] = test system: MDA-MB-435
[10] = test system: MDA-MB-231 breast

Compound: CC(/C=C/c1ncccc1OCCCCCC(=O)O)=N\NC1=NCCN1
- TGI [1]: > 100 µM
- TGI [2]: > 100 µM
- TGI [3]: > 100 µM
- TGI [4]: > 100 µM
- TGI [5]: > 100 µM
- TGI [6]: > 100 µM
- TGI [7]: > 100 µM

Compound: CN(C)C(=S)Nc1nnc(NC23CC4CC(CC(C4)C2)C3)s1
- TGI [1]: 46 µM
- TGI [2]: 31.3 µM
- TGI [3]: 34.1 µM
- TGI [4]: 38.1 µM
- TGI [5]: 68.8 µM
- TGI [6]: > 100 µM
- TGI [7]: 32.4 µM

Compound: C=C1C(=O)OC2/C=C(\C)CC/C=C(/C)CC(OC(=O)/C(=C/CO)CO)C12 (configuration not stated)
- TGI [1]: > 100 µM
- TGI [2]: 77.2 µM
- TGI [3]: 23.7 µM
- TGI [5]: 34 µM
- TGI [6]: > 100 µM
- TGI [8]: > 100 µM
- TGI [9]: 82.5 µM
- TGI [7]: > 100 µM

Compound: O=C1CCCCC/C=C2/CC[C@H](Sc3ccccc3)[C@@H]12
- TGI [1]: > 100 µM
- TGI [2]: > 100 µM
- TGI [3]: > 100 µM
- TGI [4]: > 100 µM
- TGI [6]: > 100 µM
- TGI [7]: > 100 µM

Compound: CN(Cc1cnc2nc(N)nc(N)c2n1)c1ccc(C(=O)NC(CCS(=O)(=O)O)C(=O)O)cc1 (configuration not stated)
- TGI [1]: > 100 µM
- TGI [2]: > 100 µM
- TGI [4]: > 100 µM
- TGI [5]: > 100 µM
- TGI [6]: > 100 µM
- TGI [8]: > 100 µM
- TGI [10]: > 100 µM
- TGI [9]: > 100 µM
- TGI [7]: > 100 µM

Compound: CC(=O)OCC1C(C(C)OC(C)=O)CCC2C1CCC1(C)C(OC(C)=O)CCC21 (configuration not stated)
- TGI [1]: 31.3 µM
- TGI [2]: 29.1 µM
- TGI [4]: 34.8 µM
- TGI [5]: > 100 µM
- TGI [6]: 41.8 µM
- TGI [8]: 44.9 µM
- TGI [10]: 30.7 µM
- TGI [9]: 34.6 µM
- TGI [7]: 39.6 µM

Compound: c1ccc(Cc2cccc3cc(-c4ccc(-c5ccccc5)cc4)[nH]c23)cc1
- TGI [1]: > 100 µM
- TGI [2]: > 100 µM
- TGI [4]: > 100 µM
- TGI [5]: > 100 µM
- TGI [6]: > 100 µM
- TGI [8]: > 100 µM
- TGI [10]: > 100 µM
- TGI [9]: > 100 µM
- TGI [7]: > 100 µM

Compound: C=CCN1CCC(OC(=O)C(O)(/C=C\CC)C2CCCC2)CC1 (configuration not stated)
- TGI [2]: > 100 µM
- TGI [3]: > 100 µM
- TGI [4]: > 100 µM
- TGI [5]: > 100 µM
- TGI [6]: > 100 µM
- TGI [8]: > 100 µM
- TGI [10]: > 100 µM
- TGI [9]: > 100 µM
- TGI [7]: > 100 µM

Compound: CCOC(=O)C(Cc1ccc2c(c1)CCC2)(Cc1ccc2c(c1)CCC2)C(=O)OCC
- TGI [2]: > 100 µM
- TGI [3]: 89.9 µM
- TGI [5]: > 100 µM
- TGI [6]: 78.4 µM
- TGI [8]: > 100 µM
- TGI [10]: > 100 µM
- TGI [9]: > 100 µM
- TGI [7]: > 100 µM

Compound: NNC(N)=Nc1cccc2ccccc12
- TGI [1]: > 100 µM
- TGI [2]: > 100 µM
- TGI [3]: > 100 µM
- TGI [4]: > 100 µM
- TGI [6]: > 100 µM
- TGI [8]: > 100 µM
- TGI [10]: > 100 µM
- TGI [9]: > 100 µM
- TGI [7]: > 100 µM

Compound: COc1cc(Cn2c3c(c4c(CN(C)C)c(O)ccc42)C(=O)c2ccccc2C3=O)cc(OC)c1
- TGI [1]: > 100 µM
- TGI [2]: 29.2 µM
- TGI [4]: 55.1 µM
- TGI [5]: 30.4 µM
- TGI [6]: 88.9 µM
- TGI [8]: 34.8 µM
- TGI [10]: 40.7 µM
- TGI [9]: 37 µM
- TGI [7]: 26.9 µM

Compound: CN1CCc2c(sc3nc(Nc4ccccc4)n(N)c(=O)c23)C1
- TGI [1]: > 100 µM
- TGI [3]: > 100 µM
- TGI [4]: > 100 µM
- TGI [5]: > 100 µM
- TGI [6]: > 100 µM
- TGI [8]: > 100 µM
- TGI [10]: > 100 µM

Compound: Cc1cccc2c1Oc1cc(Cl)ccc1C2NC(=O)CCN1CCCCC1 (configuration not stated)
- TGI [1]: 30.8 µM
- TGI [2]: 29.2 µM
- TGI [4]: 33 µM
- TGI [6]: 34.3 µM
- TGI [8]: 32 µM
- TGI [10]: 39 µM
- TGI [9]: 30.7 µM
- TGI [7]: 30.9 µM

Compound: C=C1c2nc3ccccc3n2C=C(c2ccc(Cl)cc2)N1c1ccc(OCCN2CCOCC2)cc1
- TGI [1]: > 100 µM
- TGI [2]: > 100 µM
- TGI [3]: > 100 µM
- TGI [4]: > 100 µM
- TGI [8]: > 100 µM
- TGI [10]: > 100 µM
- TGI [9]: > 100 µM
- TGI [7]: > 100 µM

Compound: O=C(O)CC(NC(=O)C(F)(F)F)C(=O)NC1Cc2ccccc2OC1=O (configuration not stated)
- TGI [1]: > 100 µM
- TGI [2]: > 100 µM
- TGI [3]: > 100 µM
- TGI [4]: > 100 µM
- TGI [5]: > 100 µM
- TGI [6]: > 100 µM
- TGI [8]: > 100 µM
- TGI [9]: > 100 µM

Compound: CC1=C(C)C(=O)OC(C(C)(O)C2(O)CCC3(O)C4CC(Cl)C5(O)C(O)C=CC(=O)C5(C)C4CCC32C)C1 (configuration not stated)
- TGI [1]: > 100 µM
- TGI [2]: > 100 µM
- TGI [3]: 56.1 µM
- TGI [4]: > 100 µM
- TGI [5]: > 100 µM
- TGI [6]: 32.8 µM
- TGI [10]: > 100 µM
- TGI [9]: > 100 µM
- TGI [7]: > 100 µM

Compound: CN(c1c(Cl)cccc1Cl)S(=O)(=O)c1ccccc1[N+](=O)[O-]
- TGI [1]: > 100 µM
- TGI [2]: > 100 µM
- TGI [3]: > 100 µM
- TGI [4]: > 100 µM
- TGI [5]: > 100 µM
- TGI [6]: > 100 µM
- TGI [8]: > 100 µM
- TGI [9]: > 100 µM
- TGI [7]: > 100 µM

Compound: C#CCNC(=O)CCC(N)C(=O)O (configuration not stated)
- TGI [1]: > 100 µM
- TGI [2]: > 100 µM
- TGI [3]: > 100 µM
- TGI [4]: > 100 µM
- TGI [5]: > 100 µM
- TGI [6]: > 100 µM
- TGI [8]: > 100 µM
- TGI [7]: > 100 µM
